Where “and” joins values, the source holds several entries; their conditions need not be identical. Identical values can stand only once. Entries after “also recorded” stand apart in the source; their conditions may differ.
Key:
[1] = biological target: T1, norepinephrine (NE) transporter (Homo sapiens, UniProt P23975); assay: Norepinephrine transporter binding radioligand inhibition ([3H]-nisoxetine); details: concentration 5 μM
T1 construct: expressed in transfected cells; host or cells: CHO cells
Protocol: The norepinephrine (NE) transporter removes NE from the synaptic cleft. The NE transporter terminates the effects of […], enabling its reuse by the presynaptic neuron. The in vitro binding of the compounds of the invention to the NE transporter and the percent inhibition of control-specific binding ([^3H]-nisoxetine in human recombinant CHO cells) is determined following the method described in Pacholczyk et al., (Nature 1991, 350(6316): 350-4.

uptake of norepinephrine = uptake of norepinephrine (Homo sapiens, UniProt P23975); assay: Uptake inhibition of norepinephrine, cellular assay; format: cell-based; details: read-out: Norepinephrine reuptake inhibition (IC50 μM)
Protocol: The effect of the compounds of the present invention as inhibitors of the uptake of norepinephrine and serotonin in cellular assays at concentrations that range from […] to 1 nM is determined following the methods described in Galli, A. et al. J Exp Biol 1995, 198(Pt. 10): 2197-212 and Gu, H. et al. J Biol Chem. 1994, 269(10):7124-30.

mice = assay: Forced swimming test in mice; format: in vivo
Protocol: The antidepressant activity was determined using the forced swimming test described in Porsolt, R.-D. et al. Arch Int Pharmacodyn 1977, 229(2): 327-36.
Reduction in the duration of immobility by 50% or more relative to the control group indicates possible antidepressant activity. Also, one-way ANOVA followed by Dunnett's test was applied to compare the test compound-treated and vehicle control groups. Significance was considered to be P<0.05.

C57BL6 mice = assay: Maximum tolerated doses, 5 days oral administration; format: in vivo; details: mouse, doses up to 100 mg/kg/day during 5 days
Text: An alternative evaluation of the toxicity of the compounds of the present invention may be conducted using the method described in Branch, D. R. Exp Toxicol Pathol 2009, 61(2): 133-6 and Emmenegger, U. et al. Neoplasia 2011, 13(1): 40-8. […]

[2] = system: J20 mouse model and wild-type mice; assay: Morris water maze test in old wild-type and J20 mice; format: in vivo; details: 30 mg/kg i.p.
Text: Familial Alzheimer's disease (AD) is associated with mutations that lead to the production of the β-amyloid 42 (Aβ42) peptide, a constituent of the characteristic amyloid plaques diagnostic of AD. These mutations occur at the proteolytic cleavage sites in the gene encoding the amyloid precursor protein (APP), and in the genes for presenilins 1 and 2 (PSEN1 and PSEN2), enzymes involved in APP cleavage. […] The J20 mouse model is a suitable experimental animal model for testing the activity of drugs on cognitive performance because these mice show robust impairment in spatial learning and spatial reference memory (Karl, T. et al. Behav Brain Res 2012, 228(2): 392-97; Garcia-Barroso, C. et al. Neuropharmacology 2013, 64: 114-23). The effects of Example 2 on spatial memory and learning in the J20 mouse model using the Morris water maze test (Vorhees, Ch. V. and Williams, M. T. Nat Protoc 2006, 1(2): 848-58) were investigated in our laboratory.
The Morris water maze test was applied to 45 old male mice. Twenty wild-type and 25 J20 mice (n=10-11 for each group of treatment/genotype; 10-14 months of age) were treated with vehicle or Example 2 at 30 mg/kg i.p. Percent times in quadrants, escape latencies, distance to goal and other parameters were recorded and compared between groups to assess the compound's activity.

p-ERK = assay: Western blot of p-ERK in mouse brain after i.p. administration; format: in vivo, mice; details: 30 mg/kg i.p., hippocampus, 1 hour after administration; hydrochloride
Protocol: (§1) Acute biochemical neuronal changes in neurotrophin and synaptic plasticity signaling after the administration of the compounds to be tested may be studied by Western blot assessment of ERK, Akt, phospholipase C (PLC), Trk-B, […] and CAMK II phosphorylation assays in the hippocampus, striatum and cortex at 1 hour post-administration.
(§2) Two groups of animals were used: C57BL control mice and mice treated by i.p. administration of a dose of 30 mg/kg of the compound to be tested diluted in saline solution or control saline (n=6 per group).
(§3) Animals were sacrificed by cervical dislocation at the corresponding time and different brain regions were dissected (frontal cortex, striatum, hippocampus, cerebellum) after […] of having administered the compounds. […] The supernatants were collected and the protein concentration was measured using the Dc protein assay kit (Bio-Rad, Hercules, Calif., USA) read in a 96-well plate. […]
(§4) After primary antibody incubation, membranes were washed with TBS-T and incubated for 1 hour at room temperature with the appropriate horseradish peroxidase-conjugated secondary antibody (1:2000; Promega, Madison, Wis., USA), and the reaction was finally visualized with the Western Blotting Luminol Reagent (Santa Cruz Biotechnology, Santa Cruz, Calif., USA). Western blot replicates were scanned and quantified using a computer-assisted densitometric analysis.

p-Akt = assay: Western blot of p-Akt in mouse brain after i.p. administration; format: in vivo, mice; details: 30 mg/kg i.p., hippocampus, 1 hour after administration; hydrochloride
Protocol: as §1, §2, §3, §4

p-PLCγ1 = assay: Western blot of p-PLCγ1 in mouse brain after i.p. administration; format: in vivo, mice; details: 30 mg/kg i.p., 1 hour after administration
Protocol: as §1, §2, §3, §4

uptake of norepinephrine, sequence (P23975 whole entry): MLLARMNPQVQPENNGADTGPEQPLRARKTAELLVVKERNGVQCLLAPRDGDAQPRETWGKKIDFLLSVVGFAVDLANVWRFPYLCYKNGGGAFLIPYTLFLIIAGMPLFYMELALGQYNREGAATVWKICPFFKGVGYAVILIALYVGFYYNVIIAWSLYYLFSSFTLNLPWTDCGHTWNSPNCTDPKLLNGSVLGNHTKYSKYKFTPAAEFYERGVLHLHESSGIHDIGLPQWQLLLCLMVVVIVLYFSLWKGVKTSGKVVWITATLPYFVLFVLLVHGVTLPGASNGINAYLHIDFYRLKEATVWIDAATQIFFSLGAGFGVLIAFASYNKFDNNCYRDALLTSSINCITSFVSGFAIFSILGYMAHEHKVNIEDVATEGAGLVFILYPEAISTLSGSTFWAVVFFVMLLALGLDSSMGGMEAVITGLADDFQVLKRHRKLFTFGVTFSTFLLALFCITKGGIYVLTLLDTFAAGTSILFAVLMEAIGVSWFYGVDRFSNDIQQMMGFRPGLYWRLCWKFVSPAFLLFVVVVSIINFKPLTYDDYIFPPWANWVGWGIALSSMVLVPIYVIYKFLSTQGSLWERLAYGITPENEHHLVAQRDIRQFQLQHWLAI
T1 sequence (P23975 whole entry): as above

## CNCCC(Oc1ccc(CCO)cc1)c1ccccc1.Cl (single isomer, unassigned) [Example 2, 2-[4-[3-(Methylamino)-1-phenylpropoxy]phenyl]ethanol hydrochloride]
[1]
  inhibition at 5 µM: 95%
Uptake of norepinephrine
  IC50: 0.0864 µM and 0.086 µM
mice; 30 mg/kg intraperitoneal, 60 minutes post-dosing
  antidepressant activity (duration of immobility): significant antidepressant activity
mice; 90 mg/kg p.o.
  antidepressant activity (duration of immobility): significant activity
C57BL6 mice
  oral toxicity, toxic effect: did not show any toxic effect
[2]; J20 mice
  visuospatial memory and learning: positive effect in some sessions
[2]; old wild type mice
  visuospatial memory and learning: increase in visuospatial memory and learning
p-ERK
  p-ERK levels (ERK1/2 phosphorylation): positive significant increase; also recorded: trend for an increase
p-Akt
  p-Akt levels (Akt phosphorylation): positive significant increase; also recorded: increase in Akt phosphorylation
p-PLCγ1
  p-PLCγ1 change: No significant change
